Consider 3 substances from patent US6624140B1, “Synthetic peptides with antimicrobial and endotoxin neutralizing properties for management of the sepsis syndrome” (Academisch Ziekenhuis Bij de Universiteit van Amsterdam …, priority 1997, dated 2003).

No end group written: not given here.

The test system of series [1] is IL-6 inducing ability of E. coli 0111:B4 LPS. Kind of series: Effect of heparin on neutralization of IL-6 inducing ability of LPS. In kind it is cell-based, human. As to conditions: for reduction of LPS neutralizing efficacy by heparin: same heparin concentration (0.4 U/ml). As to the method: FIG. 10. Effect of heparin on the efficacy of neutralization of the IL-6 inducing ability of E. coli 0111:B4 LPS by synthetic peptide or Polymyxin B in whole blood diluted 1 in 10. Synthetic peptides at concentrations of 2 μg/ml or PmB at 1 μg/ml was pre-incubated for 30 min at 37° C. with E. coli 0111:B4 LPS at 1 ng/ml in RPMI medium containing heparin in the concentration range of 0.1 to 100 I.U/ml. The residual cytokine inducing ability of the treated endotoxin was determined in diluted whole blood containing heparin at 2 IU/ml after incubation for 16 h at 37° C. Each value is the mean of triplicate determinations corrected for background. Controls contained only LPS.
The endotoxin neutralizing activities of the synthetic peptides of the invention were evaluated by investigating the effect on LPS-stimulated release of the pro-inflammatory cytokines, tumor necrosis factor alpha (TNF-α), interleukin-6 (IL-6) or interleukin-8 (IL-8) in a well characterized in vitro human whole blood bioassay system. In one series of experiments, dilutions of E. coli 0111:B4 LPS from 0.2 to 1 ng/ml were pre-incubated with synthetic peptides at 10 μg/ml concentrations in RPMI medium for 30 min at 20° C. and added to diluted whole blood. Cytokine concentrations in the supernatants were determined after further incubation for 16 h at 37° C. in the presence of 5% CO2 by specific and sensitive ELISA kits (CLB, Amsterdam, The Netherlands). In another series of experiments, the effects of synthetic peptides at concentrations of 2,5, 5 and 10 μg/ml on IL-6 induction by 1 ng/ml 0111:B4 LPS was examined after simultaneous addition of synthetic peptide and LPS to diluted whole blood. […] The control peptide BPI(85-102) was ineffective in reducing cytokine production under these conditions even at a 4-fold higher concentration. This probably reflects the differences in binding affinity for Lipid A of BP1 and BP2 compared with the BPI(85-102) peptide of approximately 5 and 10-fold, respectively. An additional factor which may have influenced binding of the control peptide to endotoxin is the presence of heparin employed as an anti-coagulant at a concentration of […] in the assay system. […] On this basis, it was predicted that the extent of reduction of endotoxin neutralizing efficacy would be a function of the differences in affinity between peptides for endotoxin and heparin. To verify this hypothesis, a series of experiments to determine the effect of increasing heparin concentrations on the efficacy of endotoxin neutralization during pre-incubation of synthetic peptide and E. coli 0111:B4 LPS were performed. FIG. 10 illustrates a dose-dependent suppression of endotoxin neutralizing activity of the synthetic peptides by heparin as exemplified by a reduction of IL-6 inhibition. […]

Series [2] is described as follows: ELISA binding to immobilized endotoxins of increasing complexity, effect of plasma. Also noted: species or system Escherichia coli. As to the method:
FIG. 4. Effect of endotoxin complexity and plasma concentration on the binding of synthetic peptide BP2 of the invention to immobilized LPS. Coated ELISA microtiter plates containing E.coli D31m4 Lipid A, Re, J5 or 0111:B4 LPS were incubated with synthetic peptide at a concentration of 40 ng/ml in the presence of plasma at dilutions to 10% (v/v). Binding activity was determined by the ELISA microplate lipid A binding assay as previously described.
Double-immunodiffusion of the peptides of the invention against ‘rough’ R-type E. coli D31m4 Re-LPS (List Biological Laboratories Inc., Calif.) or the structurally more complex ‘smooth’ S-type E. coli 0111:B4 LPS (Sigma Chemical Co., Rockford, Ill.) was performed in 0.8% (w/v) agarose containing 50 mM Tris and 0.1% (w/v) Triton X100, pH 7.5. for 16 h at 20° C. PmB and BPI(85-102) were included as control compounds for comparative purposes. The microprecipitates formed were visualized by Coommassie brilliant blue staining. […] Since the amount of precipitate formed is a function of valency, the peptides of the invention appear to be capable of a high degree of intermolecular binding of LPS molecules via the Lipid A moieties. […] The degree of precipitation of endotoxin by the synthetic peptides according to the invention was determined by measurement of the optical density of insoluble complexes formed at 340 nm (FIG. 2). […]
On the technique in general: An ELISA detects its analyte on a solid surface through an enzyme-linked reagent.

Series [3] is described as follows: Tolerability of i.p. peptide in mice. In kind it is in vivo. As to conditions: 2.5 and 5 mg/Kg i.p.; 2 week observation; Swiss mice.

Regarding “GKWKLFKKAFKKFLKILAC-OH [BP2, Gly-Lys-Trp-Lys-Leu-Phe-Lys-Lys-Ala-Phe-Lys-Lys-Phe-Leu-Lys-Ile-Leu-Ala-Cys]”, the “molar excess of heparin with respect to LPS for 50% competitive inhibition” value in series [1] was “approximately 10,000 fold”. Further, the “degree of binding versus complexity of immobilized LPS” value in series [2] (peptide 40 ng/ml) is reported as “decreases with increasing complexity of immobilized LPS”. The “effect of plasma on binding to endotoxins” value in series [2] (up to 5% (v/v) heat-treated, clarified plasma) is recorded as “no significant effect”. Besides, the tolerability entry in series [3] is “well tolerated with no adverse effects”.
Regarding “Ile-Lys-Ile-Ser-Gly-Lys-Trp-Lys-Ala-Gin-Lys-Arg-Phe-Leu-Lys-Met-Ser-Gly-(Cys) (IKISGKWKAQKRFLKMSGC; listed as Homo sapiens) [BPI(85-102), reference compound]”, in series [1], the “reduction of LPS neutralizing efficacy by heparin” value amounted to 80%.
As to GRLRKKWKAFKKFLKILAC [BP1], the “reduction of LPS neutralizing efficacy by heparin” value in series [1] was found to be 75%.
